Source: PubChem BioAssay AID192 (DTP/NCI, 2004)
Several values for one entry are separate records, joined by “and”; a condition that tells them apart may be missing. Equal values may be shown once. Inconclusive results and toxic doses are left out.

Test system: BDF1 mice, B16 melanoma ip, median survival T/C
Experiment: NCI In Vivo Anticancer Drug Screen. Data for tumor model B16 Melanoma (intraperitoneal) in B6D2F1 (BDF1) mice
Conditions: endpoint: median survival time, higher = longer survival
Method in brief: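 Read-out: survival or tumor size, given as treated/control ratio. Controls received vehicle only; animals bore transplantable tumors.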

[1] = dose: 100.0 mg/kg/injection, schedule: Q01DX009 (ip), vehicle: Klucel (hydroxypropylcellulose) (HPC)
[2] = dose: 6.25 mg/kg/injection, schedule: Q01DX009 (ip), vehicle: saline
[3] = dose: 12.5 mg/kg/injection, schedule: Q01DX009 (ip), vehicle: saline
[4] = dose: 50.0 mg/kg/injection, schedule: Q01DX009 (ip), vehicle: saline
[5] = dose: 50.0 mg/kg/injection, schedule: Q01DX009 (ip), vehicle: Klucel (hydroxypropylcellulose) (HPC)
[6] = dose: 25.0 mg/kg/injection, schedule: Q01DX009 (ip), vehicle: Klucel (hydroxypropylcellulose) (HPC)
[7] = dose: 100.0 mg/kg/injection, schedule: Q01DX009 (ip), vehicle: saline
[8] = dose: 25.0 mg/kg/injection, schedule: Q01DX009 (ip), vehicle: saline with Tween-80
[9] = dose: 50.0 mg/kg/injection, schedule: Q01DX009 (ip), vehicle: saline with Tween-80
[10] = dose: 100.0 mg/kg/injection, schedule: Q01DX009 (ip), vehicle: saline with Tween-80
[11] = dose: 200.0 mg/kg/injection, schedule: Q01DX009 (ip), vehicle: saline with Tween-80
[12] = dose: 0.1 mg/kg/injection, schedule: Q01DX009 (ip), vehicle: saline with Tween-80
[13] = dose: 0.2 mg/kg/injection, schedule: Q01DX009 (ip), vehicle: saline with Tween-80
[14] = dose: 0.4 mg/kg/injection, schedule: Q01DX009 (ip), vehicle: saline with Tween-80
[15] = dose: 0.8 mg/kg/injection, schedule: Q01DX009 (ip), vehicle: saline with Tween-80
[16] = dose: 0.05 mg/kg/injection, schedule: Q01DX009 (ip), vehicle: saline with Tween-80
[17] = dose: 12.5 mg/kg/injection, schedule: Q01DX009 (ip), vehicle: Klucel (hydroxypropylcellulose) (HPC)
[18] = dose: 25.0 mg/kg/injection, schedule: Q01DX009 (ip), vehicle: saline

## CCCCCCC(=O)C(CCCC)(C(=O)OCC)C(=O)OCC
[1]
  T/C: 89 % of control

## O=C(/C(=C/c1ccccc1)CBr)c1ccccc1
dose: 0.13 mg/kg/injection, schedule: Q01DX009 (ip), vehicle: saline with Tween-80
  T/C: 89 % of control
dose: 0.25 mg/kg/injection, schedule: Q01DX009 (ip), vehicle: saline with Tween-80
  T/C: 100 % of control
dose: 0.5 mg/kg/injection, schedule: Q01DX009 (ip), vehicle: saline with Tween-80
  T/C: 86 % of control and 100 % of control
dose: 1.0 mg/kg/injection, schedule: Q01DX009 (ip), vehicle: saline with Tween-80
  T/C: 89 % of control and 92 % of control
dose: 2.0 mg/kg/injection, schedule: Q01DX009 (ip), vehicle: saline with Tween-80
  T/C: 89 % of control
dose: 4.0 mg/kg/injection, schedule: Q01DX009 (ip), vehicle: saline with Tween-80
  T/C: 89 % of control

## NC(CSC(c1ccccc1)(c1ccccc1)c1ccccc1)C(=O)O (stereo not drawn)
dose: 3.13 mg/kg/injection, schedule: Q01DX009 (ip), vehicle: saline
  T/C: 109 % of control
[2]
  T/C: 118 % of control
[3]
  T/C: 120 % of control
[4]
  T/C: 150 % of control

## C=CC(C(=O)OCC)C(O)CCC (stereo not drawn)
[5]
  T/C: 121 % of control
[1]
  T/C: 100 % of control
dose: 200.0 mg/kg/injection, schedule: Q01DX009 (ip), vehicle: Klucel (hydroxypropylcellulose) (HPC)
  T/C: 101 % of control

## CCO/C=C1\SC(=S)N(c2cccc(O)c2)C1=O
[6]
  T/C: 102 % of control
[5]
  T/C: 102 % of control
[1]
  T/C: 101 % of control

## C=C1CCN2CCCC12 (stereo not drawn)
dose: 10.0 mg/kg/injection, schedule: Q01DX009 (ip), vehicle: saline
  T/C: 107 % of control
dose: 20.0 mg/kg/injection, schedule: Q01DX009 (ip), vehicle: saline
  T/C: 104 % of control
dose: 40.0 mg/kg/injection, schedule: Q01DX009 (ip), vehicle: saline
  T/C: 100 % of control
dose: 80.0 mg/kg/injection, schedule: Q01DX009 (ip), vehicle: saline
  T/C: 95 % of control

## CC1CC(C)(C)N=C(CCC2CCCC23OCCO3)O1 (stereo not drawn)
[4]
  T/C: 108 % of control
[7]
  T/C: 111 % of control

## CC(NC(=O)C(C)NC(=O)OC(C)(C)C)C(=O)O (stereo not drawn)
[8]
  T/C: 92 % of control
[9]
  T/C: 94 % of control
[10]
  T/C: 93 % of control
[11]
  T/C: 92 % of control

## O=[N+]([O-])c1cc(S(=O)(=O)OCC2CO2)ccc1Cl (stereo not drawn)
[12]
  T/C: 100 % of control
[13]
  T/C: 93 % of control
[14]
  T/C: 97 % of control
[15]
  T/C: 95 % of control

## CC(=O)CC(c1ccccc1)c1c(O)c2ccccc2oc1=O (stereo not drawn)
[16]
  T/C: 107 % of control
[12]
  T/C: 98 % of control
[13]
  T/C: 104 % of control
[15]
  T/C: 90 % of control

## CCOC(=O)C(C=O)(NC(=O)c1ccccc1)OCC (stereo not drawn)
[10]
  T/C: 102 % of control
[11]
  T/C: 97 % of control
dose: 400.0 mg/kg/injection, schedule: Q01DX009 (ip), vehicle: saline with Tween-80
  T/C: 100 % of control

## CCOC(=O)C1C(=O)C(CN(CCCl)CCCl)C(=O)C(C(=O)OCC)C1c1ccc(O)cc1 (stereo not drawn)
[17]
  T/C: 158 % of control

## Nc1ccc(OCc2ccccc2)cc1
[8]
  T/C: 109 % of control

## COC1N(C2CC(O)C(CO)O2)C(=O)NC(=O)C1(F)Br (stereo not drawn)
dose: 1.56 mg/kg/injection, schedule: Q01DX009 (ip), vehicle: saline
  T/C: 100 % of control
dose: 3.12 mg/kg/injection, schedule: Q01DX009 (ip), vehicle: saline
  T/C: 87 % of control
dose: 5.0 mg/kg/injection, schedule: Q01DX009 (ip), vehicle: saline with Tween-80
  T/C: 106 % of control
[2]
  T/C: 102 % of control
dose: 10.0 mg/kg/injection, schedule: Q01DX009 (ip), vehicle: saline with Tween-80
  T/C: 109 % of control
[3]
  T/C: 108 % of control
dose: 20.0 mg/kg/injection, schedule: Q01DX009 (ip), vehicle: saline with Tween-80
  T/C: 104 % of control
[18]
  T/C: 88 % of control

## O=C(Nc1ccccc1)Nc1cccc(Cl)c1
[9]
  T/C: 100 % of control
[10]
  T/C: 98 % of control
[11]
  T/C: 96 % of control

## CCCCCCCCCCCc1n(Cc2ccccc2)cc[n+]1C
dose: 0.75 mg/kg/injection, schedule: Q01DX009 (ip), vehicle: saline
  T/C: 86 % of control
dose: 1.5 mg/kg/injection, schedule: Q01DX009 (ip), vehicle: saline
  T/C: 90 % of control
dose: 3.0 mg/kg/injection, schedule: Q01DX009 (ip), vehicle: saline
  T/C: 97 % of control

## C=CCOC(=O)C1CC(C(=O)OCC=C)C(C(=O)OCC=C)C1C(=O)OCC=C (stereo not drawn)
dose: 50.0 mg/kg/injection, schedule: Q01DX009 (ip), vehicle: other
  T/C: 96 % of control
dose: 100.0 mg/kg/injection, schedule: Q01DX009 (ip), vehicle: other
  T/C: 105 % of control
dose: 200.0 mg/kg/injection, schedule: Q01DX009 (ip), vehicle: other
  T/C: 98 % of control

## CC[N+](CC)(CC)CCC[n+]1ccc(/C=N\O)cc1
[18]
  T/C: 111 % of control
[4]
  T/C: 111 % of control
[7]
  T/C: 111 % of control

## CC1=CC(=O)C(CO)=CC1=O
[16]
  T/C: 94 % of control
[12]
  T/C: 103 % of control
[13]
  T/C: 93 % of control
dose: 0.38 mg/kg/injection, schedule: Q01DX009 (ip), vehicle: saline with Tween-80
  T/C: 93 % of control
[14]
  T/C: 94 % of control

## Cn1cnc([N+](=O)[O-])c1S(=O)(=O)NCN1CCOCC1
[17]
  T/C: 98 % of control
[6]
  T/C: 96 % of control
[5]
  T/C: 97 % of control
[1]
  T/C: 94 % of control

## CCCCNC(=S)N/N=C/c1ccccn1
[8]
  T/C: 102 % of control
[9]
  T/C: 99 % of control
[10]
  T/C: 104 % of control

## N#C[CH2][Sn]([I])([c]1ccccc1)[c]1ccccc1
dose: 3.12 mg/kg/injection, schedule: Q01DX009 (ip), vehicle: saline with Tween-80
  T/C: 93 % of control
dose: 6.25 mg/kg/injection, schedule: Q01DX009 (ip), vehicle: saline with Tween-80
  T/C: 87 % of control
dose: 12.5 mg/kg/injection, schedule: Q01DX009 (ip), vehicle: saline with Tween-80
  T/C: 86 % of control

## C[CH2][Pb]([CH2]C)([CH2]C)[O]C(=O)c1ccc(N)cc1
dose: 0.75 mg/kg/injection, schedule: Q01DX009 (ip), vehicle: Klucel (hydroxypropylcellulose) (HPC)
  T/C: 111 % of control
dose: 1.5 mg/kg/injection, schedule: Q01DX009 (ip), vehicle: Klucel (hydroxypropylcellulose) (HPC)
  T/C: 111 % of control
dose: 3.0 mg/kg/injection, schedule: Q01DX009 (ip), vehicle: Klucel (hydroxypropylcellulose) (HPC)
  T/C: 108 % of control
dose: 6.0 mg/kg/injection, schedule: Q01DX009 (ip), vehicle: Klucel (hydroxypropylcellulose) (HPC)
  T/C: 111 % of control
dose: 12.0 mg/kg/injection, schedule: Q01DX009 (ip), vehicle: Klucel (hydroxypropylcellulose) (HPC)
  T/C: 105 % of control

## Cc1cc(C)[nH]c(=S)n1
[4]
  T/C: 95 % of control
[7]
  T/C: 95 % of control
dose: 200.0 mg/kg/injection, schedule: Q01DX009 (ip), vehicle: saline
  T/C: 106 % of control

## CC[n+]1c(C)sc2cc3c(cc21)OCO3
dose: 25.0 mg/kg/injection, schedule: Q01DX009 (ip), vehicle: carboxymethylcellulose (CMC)
  T/C: 108 % of control
dose: 50.0 mg/kg/injection, schedule: Q01DX009 (ip), vehicle: carboxymethylcellulose (CMC)
  T/C: 106 % of control

## O=C(Nc1ccccc1)N(Cc1ccccc1)c1ccccc1
dose: 50.0 mg/kg/injection, schedule: Q04DX009 (ip), vehicle: Klucel (hydroxypropylcellulose) (HPC)
  T/C: 104 % of control
dose: 100.0 mg/kg/injection, schedule: Q04DX009 (ip), vehicle: Klucel (hydroxypropylcellulose) (HPC)
  T/C: 104 % of control
dose: 200.0 mg/kg/injection, schedule: Q04DX003 (ip), vehicle: carboxymethylcellulose (CMC)
  T/C: 105 % of control
dose: 200.0 mg/kg/injection, schedule: Q04DX009 (ip), vehicle: Klucel (hydroxypropylcellulose) (HPC)
  T/C: 93 % of control

## CCCCCCCCCCCCCCCCCC[n+]1cccc(C(=O)N2CCOCC2)c1
dose: 2.0 mg/kg/injection, schedule: Q01DX009 (ip), vehicle: saline sonified
  T/C: 92 % of control
dose: 4.0 mg/kg/injection, schedule: Q01DX009 (ip), vehicle: saline sonified
  T/C: 100 % of control
dose: 8.0 mg/kg/injection, schedule: Q01DX009 (ip), vehicle: saline sonified
  T/C: 92 % of control
dose: 16.0 mg/kg/injection, schedule: Q01DX009 (ip), vehicle: saline sonified
  T/C: 92 % of control
